For 1 compound, IC50 results are on record in patent publication US20060063717A1, “Novel inhibitor of beta amyloid cleavage” (Pfizer Inc, priority 2001, published 2006).

In general, IC50 refers to the point on the concentration scale where inhibition reaches its midpoint.

*1 amine or outer side, *2 acyl side, *3 side chain or, on linkers, in order; H or OH if unused. Where a SMILES comes first, the peptide text is derived from it. [ ]: non-standard residue; d: D form. X1 = CC(C)(O)[C@H](C[C@H](O)[C@H](CC1CCCCC1)N[*:1])C(=O)[*:2]

The target in this test is β-Secretase (Homo sapiens, UniProt P56817). The following applies: in-vitro ELISA; βAP produced in presence of β-Secretase and APP versus control without inhibitor.
β-Secretase, sequence (P56817 46-501): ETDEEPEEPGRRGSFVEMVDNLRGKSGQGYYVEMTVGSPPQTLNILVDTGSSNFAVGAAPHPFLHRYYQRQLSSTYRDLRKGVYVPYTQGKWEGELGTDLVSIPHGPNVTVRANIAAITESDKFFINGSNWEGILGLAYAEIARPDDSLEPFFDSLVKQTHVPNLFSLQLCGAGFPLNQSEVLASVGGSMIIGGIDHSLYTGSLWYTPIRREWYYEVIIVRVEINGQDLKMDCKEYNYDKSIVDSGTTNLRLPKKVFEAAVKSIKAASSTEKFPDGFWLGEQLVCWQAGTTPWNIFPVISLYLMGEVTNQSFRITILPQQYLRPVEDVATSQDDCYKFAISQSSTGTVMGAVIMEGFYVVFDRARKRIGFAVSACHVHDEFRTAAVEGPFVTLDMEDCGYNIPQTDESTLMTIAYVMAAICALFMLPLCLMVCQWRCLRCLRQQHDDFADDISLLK

Excerpt: Such assays, which are well known in the art, measure the concentration of βAP produced (by detection of an antibody against the amino terminus of βAP) in the presence of β-Secretase and APP versus control experiments in the absence of inhibitor.

Regarding `CC(C)[C@H](NC(=O)[C@@H](N)CCC(=O)O)C(=O)N[C@@H](CC(N)=O)C(=O)N[C@@H](CC1CCCCC1)[C@@H](O)C[C@H](C(=O)N[C@H](C)C(=O)N[C@H](CCC(=O)O)C(=O)N[C@H](Cc1ccccc1)C(=O)O)C(C)(C)O` [compound of formula I] (H-EVN[X1][dA][dE][dF]-OH), the half-inhibitory concentration (IC50) was 49 nM.
